# Laboratory results as given in paper PMC6911266 (Nature, 2019).
# Assays:
# Assay in all cases: Piperaquine survival assay
# Type in all cases: cell-based, Plasmodium falciparum
# Conditions in all cases: vs no-drug control
# [1] = tested on: P. falciparum 7G8^7G8 parasite line
# [2] = tested on: P. falciparum 7G8^7G8+F145I parasite line
# [3] = tested on: P. falciparum Dd2^Dd2 parasite line
structure (smiles),measurement,setting,value
"Clc1ccc2c(N3CCN(CCCN4CCN(c5ccnc6cc(Cl)ccc56)CC4)CC3)ccnc2c1 [PPQ, piperaquine]","PSA 3.125 nM, percent survival",[1]; 3.125 nM PPQ 48 h,93.8 ± 3.5%
same,"PSA 6.25 nM, percent survival",[1]; 6.25 nM PPQ 48 h,87.1 ± 3.5%
same,"PSA 12.5 nM, percent survival",[1]; 12.5 nM PPQ 48 h,76.7 ± 5.1%
same,"PSA 25 nM, percent survival",[1]; 25 nM PPQ 48 h,48.3 ± 5.5%
same,"PSA 50 nM, percent survival",[1]; 50 nM PPQ 48 h,4.9 ± 1.3%
same,"PSA 100 nM, percent survival",[1]; 100 nM PPQ 48 h,1.6 ± 0.3%
same,"PSA 200 nM, percent survival",[1]; 200 nM PPQ 48 h,1.4 ± 0.2%
same,"PSA 400 nM, percent survival",[1]; 400 nM PPQ 48 h,0.66 ± 0.20%
same,"PSA 800 nM, percent survival",[1]; 800 nM PPQ 48 h,0.56 ± 0.17%
same,"PSA 1600 nM, percent survival",[1]; 1600 nM PPQ 48 h,0.54 ± 0.20%
same,"PSA 3.125 nM, percent survival",[2]; 3.125 nM PPQ 48 h,95.7 ± 3.1%
same,"PSA 6.25 nM, percent survival",[2]; 6.25 nM PPQ 48 h,83.4 ± 4.5%
same,"PSA 12.5 nM, percent survival",[2]; 12.5 nM PPQ 48 h,62.3 ± 4.1%
same,"PSA 25 nM, percent survival",[2]; 25 nM PPQ 48 h,44.5 ± 2.4%
same,"PSA 50 nM, percent survival",[2]; 50 nM PPQ 48 h,8.5 ± 1.2%
same,"PSA 200 nM, percent survival",[2]; 200 nM PPQ 48 h,8.6 ± 2.4%
same,"PSA 400 nM, percent survival",[2]; 400 nM PPQ 48 h,12.7 ± 2.5%
same,"PSA 800 nM, percent survival",[2]; 800 nM PPQ 48 h,13.1 ± 3.9%
same,"PSA 1600 nM, percent survival",[2]; 1600 nM PPQ 48 h,14.7 ± 4.2%
same,"PSA 3.125 nM, percent survival",[3]; 3.125 nM PPQ 48 h,95.9 ± 2.1%
same,"PSA 6.25 nM, percent survival",[3]; 6.25 nM PPQ 48 h,83.6 ± 6.1%
same,"PSA 12.5 nM, percent survival",[3]; 12.5 nM PPQ 48 h,67.7 ± 11.9%
same,"PSA 25 nM, percent survival",[3]; 25 nM PPQ 48 h,35.3 ± 12.2%
same,"PSA 50 nM, percent survival",[3]; 50 nM PPQ 48 h,7.6 ± 3.3%
same,"PSA 100 nM, percent survival",[3]; 100 nM PPQ 48 h,1.7 ± 0.2%
same,"PSA 200 nM, percent survival",[3]; 200 nM PPQ 48 h,1.1 ± 0.10%
same,"PSA 400 nM, percent survival",[3]; 400 nM PPQ 48 h,1.1 ± 0.24%
same,"PSA 800 nM, percent survival",[3]; 800 nM PPQ 48 h,0.89 ± 0.16%
same,"PSA 1600 nM, percent survival",[3]; 1600 nM PPQ 48 h,0.87 ± 0.10%
